Molecular target: T1, ALK (baculovirus expressed human ALK kinase domain F1098-K1410) (Homo sapiens, UniProt Q9UM73)
T1 construct: baculovirus expressed human ALK kinase domain F1098-K1410; made in house
Experiment: Luciferase-Coupled Chemiluminescent Kinase assay (LCCA), ALK biochemical activity
Details: inhibition of ALK; mean values; 1 μM ATP, 4 μM poly-AEKY, 12 nM ALK, 2 hours ambient temperature
Summary of the method: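 Luciferase-coupled readout of ATP remaining after reaction of 12 nM ALK kinase domain with 1 μM ATP and 4 μM poly-AEKY, Tris-HCl pH 7.5 buffer with MgCl2 and MnCl2. Incubated 2 h at ambient temperature; inhibition derived from ATP consumption across serial compound dilutions.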

T1 sequence (Q9UM73 1098-1410): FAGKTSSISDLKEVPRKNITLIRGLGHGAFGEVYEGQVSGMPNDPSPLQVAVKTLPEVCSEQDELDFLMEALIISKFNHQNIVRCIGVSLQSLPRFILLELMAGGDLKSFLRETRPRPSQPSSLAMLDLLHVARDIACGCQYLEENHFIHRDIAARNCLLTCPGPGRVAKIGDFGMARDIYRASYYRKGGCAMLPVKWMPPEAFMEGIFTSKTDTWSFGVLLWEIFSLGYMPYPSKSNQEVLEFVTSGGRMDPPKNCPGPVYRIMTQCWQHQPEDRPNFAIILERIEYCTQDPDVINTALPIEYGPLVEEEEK

SMILES | IC50
COc1ccc(-c2nc3[nH]nc(C)c3c3cc(OCC4CCN(C)CC4)c(OC)c(F)c23)cc1Cl [Example 173, 5-[3-chloro-4-(methyloxy)phenyl]-6-fluoro-1-methyl-7-(methyloxy)-8-{[(1-methylpiperidin-4-yl)methyl]oxy}-3H-pyrazolo[3,4-c]isoquinoline] | 1000 to 2000 nM
COc1ccc(-c2nc3[nH]nc(C)c3c3cc(F)c(OC)c(O)c23)cc1Cl [Example 174, 5-[3-chloro-4-(methyloxy)phenyl]-8-fluoro-1-methyl-7-(methyloxy)-3H-pyrazolo[3,4-c]isoquinolin-6-ol] | > 2000 nM
Cc1n[nH]c2nc(-c3ccc4[nH]ccc4c3)c3c(F)cc(O)c(F)c3c12 [Example 191, 6,9-difluoro-5-(1H-indol-5-yl)-1-methyl-3H-pyrazolo[3,4-c]isoquinolin-8-ol] | 100 to 999 nM
Cc1n[nH]c2nc(-c3ccc(N)cc3)c3c(F)cc(O)c(F)c3c12 [Example 193, 5-(4-aminophenyl)-6,9-difluoro-1-methyl-3H-pyrazolo[3,4-c]isoquinolin-8-ol] | 1000 to 2000 nM
CCN1CCN(CCOc2cc(F)c3c(-c4ccc(O)c(Cl)c4)nc4[nH]nc(C)c4c3c2OC)CC1 [Example 196, 2-chloro-4-[8-{[2-(4-ethylpiperazin-1-yl)ethyl]oxy}-6-fluoro-1-methyl-9-(methyloxy)-3H-pyrazolo[3,4-c]isoquinolin-5-yl]phenol] | ≤ 99 nM
COc1c(OCCN2CCN(C)CC2)cc(F)c2c(-c3ccc(O)c(Cl)c3)nc3[nH]nc(C)c3c12 [Example 197, 2-chloro-4-(6-fluoro-1-methyl-9-(methyloxy)-8-{[2-(4-methylpiperazin-1-yl)ethyl]oxy}-3H-pyrazolo[3,4-c]isoquinolin-5-yl)phenol] | ≤ 99 nM
Cc1n[nH]c2nc(-c3ccc(N)nc3)c3c(F)cc(O)c(F)c3c12 [Example 198, 5-(6-aminopyridin-3-yl)-6,9-difluoro-1-methyl-3H-pyrazolo[3,4-c]isoquinolin-8-ol] | > 2000 nM
Cc1n[nH]c2nc(-c3ccc(N)s3)c3c(F)cc(O)c(F)c3c12 [Example 199, 5-(5-amino-2-thienyl)-6,9-difluoro-1-methyl-3H-pyrazolo[3,4-c]isoquinolin-8-ol] | 100 to 999 nM
CCN1CCN(CCCOc2cc(F)c3c(-c4ccc(O)c(Cl)c4)nc4[nH]nc(C)c4c3c2OC)CC1 [Example 200, 2-chloro-4-[8-{[3-(4-ethylpiperazin-1-yl)propyl]oxy}-6-fluoro-1-methyl-9-(methyloxy)-3H-pyrazolo[3,4-c]isoquinolin-5-yl]phenol] | ≤ 99 nM
COc1c(OCCCN2CCN(C)CC2)cc(F)c2c(-c3ccc(O)c(Cl)c3)nc3[nH]nc(C)c3c12 [Example 201, 2-chloro-4-(6-fluoro-1-methyl-9-(methyloxy)-8-{[3-(4-methylpiperazin-1-yl)propyl]oxy}-3H-pyrazolo[3,4-c]isoquinolin-5-yl)phenol] | ≤ 99 nM
Cc1n[nH]c2nc(-c3ccc4cc[nH]c4c3)c3c(F)cc(O)c(F)c3c12 [Example 202, 6,9-difluoro-5-(1H-indol-6-yl)-1-methyl-3H-pyrazolo[3,4-c]isoquinolin-8-ol] | > 2000 nM
CC(=O)Nc1ncc(-c2nc3[nH]nc(C)c3c3c(F)c(O)cc(F)c23)s1 [Example 203, N-[5-(6,9-difluoro-8-hydroxy-1-methyl-3H-pyrazolo[3,4-c]isoquinolin-5-yl)-1,3-thiazol-2-yl]acetamide] | 1000 to 2000 nM
COc1c(OCCN2CCOCC2)cc(F)c2c(-c3ccc(O)c(Cl)c3)nc3[nH]nc(C)c3c12 [Example 206, 2-chloro-4-{6-fluoro-1-methyl-9-(methyloxy)-8-[(2-morpholin-4-ylethyl)oxy]-3H-pyrazolo[3,4-c]isoquinolin-5-yl}phenol] | ≤ 99 nM
CCCCN(CC)CCOc1cc(F)c2c(-c3ccc(O)c(Cl)c3)nc3[nH]nc(C)c3c2c1OC [Example 207, 4-[8-({2-[butyl(ethyl)amino]ethyl}oxy)-6-fluoro-1-methyl-9-(methyloxy)-3H-pyrazolo[3,4-c]isoquinolin-5-yl]-2-chlorophenol] | ≤ 99 nM
COc1c(OC[C@H](N)C(C)C)cc(F)c2c(-c3ccc(O)c(Cl)c3)nc3[nH]nc(C)c3c12 [Example 208, 4-[8-{[(2R)-2-amino-3-methylbutyl]oxy}-6-fluoro-1-methyl-9-(methyloxy)-3H-pyrazolo[3,4-c]isoquinolin-5-yl]-2-chlorophenol] | ≤ 99 nM
COc1c(OCCC2CCN(C)CC2)cc(F)c2c(-c3ccc(O)c(Cl)c3)nc3[nH]nc(C)c3c12 [Example 209, 2-chloro-4-(6-fluoro-1-methyl-9-(methyloxy)-8-{[2-(1-methylpiperidin-4-yl)ethyl]oxy}-3H-pyrazolo[3,4-c]isoquinolin-5-yl)phenol] | ≤ 99 nM

The remaining lines, values ahead:

IC50 | SMILES
≤ 99 nM | COc1c(F)cc2c(c(-c3ccc(O)c(Cl)c3)nc3[nH]nc(C)c32)c1O [Example 170, 5-(3-chloro-4-hydroxyphenyl)-8-fluoro-1-methyl-7-(methyloxy)-3H-pyrazolo[3,4-c]isoquinolin-6-ol]
≤ 99 nM | COc1c(OCC2CCN(C)CC2)cc2c(c(-c3ccc(O)c(Cl)c3)nc3[nH]nc(C)c32)c1F [Example 171, 2-chloro-4-(6-fluoro-1-methyl-7-(methyloxy)-8-{[(1-methylpiperidin-4-yl)methyl]oxy}-3H-pyrazolo[3,4-c]isoquinolin-5-yl)phenol]
≤ 99 nM | COCCOc1cc(F)c2c(-c3ccc(O)c(Cl)c3)nc3[nH]nc(C)c3c2c1OCCOC [Example 172, 2-chloro-4-(6-fluoro-1-methyl-8,9-bis{[2-(methyloxy)ethyl]oxy}-3H-pyrazolo[3,4-c]isoquinolin-5-yl)phenol]
≤ 99 nM | COc1c(OCCN2CCCCC2)cc2c(c(-c3ccc(O)c(Cl)c3)nc3[nH]nc(C)c32)c1F [Example 176, 2-chloro-4-{6-fluoro-1-methyl-7-(methyloxy)-8-[(2-piperidin-1-ylethyl)oxy]-3H-pyrazolo[3,4-c]isoquinolin-5-yl}phenol]
≤ 99 nM | CCN1CCN(CCOc2cc3c(c(-c4ccc(O)c(Cl)c4)nc4[nH]nc(C)c43)c(F)c2OC)CC1 [Example 177, 2-chloro-4-[8-{[2-(4-ethylpiperazin-1-yl)ethyl]oxy}-6-fluoro-1-methyl-7-(methyloxy)-3H-pyrazolo[3,4-c]isoquinolin-5-yl]phenol]
≤ 99 nM | CCN(CC)CCOc1cc2c(c(-c3ccc(O)c(Cl)c3)nc3[nH]nc(C)c32)c(F)c1OC [Example 178, 2-chloro-4-[8-{[2-(diethylamino)ethyl]oxy}-6-fluoro-1-methyl-7-(methyloxy)-3H-pyrazolo[3,4-c]isoquinolin-5-yl]phenol]
≤ 99 nM | COCCOc1cc2c(c(-c3ccc(O)c(Cl)c3)nc3[nH]nc(C)c32)c(F)c1OC [Example 179, 2-chloro-4-(6-fluoro-1-methyl-7-(methyloxy)-8-{[2-(methyloxy)ethyl]oxy}-3H-pyrazolo[3,4-c]isoquinolin-5-yl)phenol]
≤ 99 nM | COc1c(OCC2CCN(C)CC2)cc(F)c2c(-c3ccc(O)c(Cl)c3)nc3[nH]nc(C)c3c12 [Example 182, 2-chloro-4-(6-fluoro-1-methyl-9-(methyloxy)-8-{[(1-methylpiperidin-4-yl)methyl]oxy}-3H-pyrazolo[3,4-c]isoquinolin-5-yl)phenol]
≤ 99 nM | COc1c(OCC2CCN(C)CC2)cc(F)c2c(-c3ccc(O)c(Br)c3)nc3[nH]nc(C)c3c12 [Example 183, 2-bromo-4-(6-fluoro-1-methyl-9-(methyloxy)-8-{[(1-methylpiperidin-4-yl)methyl]oxy}-3H-pyrazolo[3,4-c]isoquinolin-5-yl)phenol]
≤ 99 nM | COc1c(OCC2CCN(C)CC2)cc(F)c2c(-c3cc(Cl)c(O)cc3F)nc3[nH]nc(C)c3c12 [Example 184, 2-chloro-5-fluoro-4-(6-fluoro-1-methyl-9-(methyloxy)-8-{[(1-methylpiperidin-4-yl)methyl]oxy}-3H-pyrazolo[3,4-c]isoquinolin-5-yl)phenol]
≤ 99 nM | COc1c(OCC2CCN(C)CC2)cc(F)c2c(-c3ccc(O)c(C)c3)nc3[nH]nc(C)c3c12 [Example 185, 4-(6-fluoro-1-methyl-9-(methyloxy)-8-{[(1-methylpiperidin-4-yl)methyl]oxy}-3H-pyrazolo[3,4-c]isoquinolin-5-yl)-2-methylphenol]
≤ 99 nM | Cc1n[nH]c2nc(-c3ccc(O)c(Cl)c3)c3c(F)cc(OCCN4CCCCC4)c(F)c3c12 [Example 186, 2-chloro-4-{6,9-difluoro-1-methyl-8-[(2-piperidin-1-ylethyl)oxy]-3H-pyrazolo[3,4-c]isoquinolin-5-yl}phenol]
≤ 99 nM | CCN1CCN(CCOc2cc(F)c3c(-c4ccc(O)c(Cl)c4)nc4[nH]nc(C)c4c3c2F)CC1 [Example 187, 2-chloro-4-(8-{[2-(4-ethylpiperazin-1-yl)ethyl]oxy}-6,9-difluoro-1-methyl-3H-pyrazolo[3,4-c]isoquinolin-5-yl)phenol]
≤ 99 nM | CCN(CC)CCOc1cc(F)c2c(-c3ccc(O)c(Cl)c3)nc3[nH]nc(C)c3c2c1F [Example 188, 2-chloro-4-(8-{[2-(diethylamino)ethyl]oxy}-6,9-difluoro-1-methyl-3H-pyrazolo[3,4-c]isoquinolin-5-yl)phenol]
≤ 99 nM | COc1c(OCCN2CCN(C)CC2)cc2c(c(-c3ccc(O)c(Cl)c3)nc3[nH]nc(C)c32)c1F [Example 194, 2-chloro-4-(6-fluoro-1-methyl-7-(methyloxy)-8-{[2-(4-methylpiperazin-1-yl)ethyl]oxy}-3H-pyrazolo[3,4-c]isoquinolin-5-yl)phenol]
≤ 99 nM | Cc1n[nH]c2nc(-c3cnc(N)s3)c3c(F)cc(O)c(F)c3c12 [Example 195, 5-(2-amino-1,3-thiazol-5-yl)-6,9-difluoro-1-methyl-3H-pyrazolo[3,4-c]isoquinolin-8-ol]

From patent US7872014B2, “Anaplastic lymphoma kinase modulators and methods of use” (Exelixis, Inc., priority 2003, dated 2011)
